The source of these data is ChEMBL document CHEMBL3872214, “Synthesis and evaluation of in vivo antioxidant, in vitro antibacterial, MRSA and antifungal activity of novel substituted isatin N-(2,3,4,6-tetra-O-acetyl-β-d-glucopyranosyl)thiosemicarbazones” (Eur J Med Chem, 2016).

What all share (assay type): functional
One experiment has as its system Bacillus subtilis. Kind of experiment: Antibacterial activity against Bacillus subtilis ATCC 11774 after 18 to 20 hrs by two-fold microbroth dilution method.
Experiment [1] relates to Staphylococcus aureus. The experiment is described as follows: Antibacterial activity against Staphylococcus aureus ATCC 11632 after 18 to 20 hrs by two-fold microbroth dilution method.
Experiment [2] relates to Staphylococcus epidermidis. Kind of experiment: Antibacterial activity against Staphylococcus epidermidis ATCC 12228 after 18 to 20 hrs by two-fold microbroth dilution method.
The next experiment deals with Klebsiella aerogenes. The experiment is described as follows: Antibacterial activity against Enterobacter aerogenes ATCC 13048 after 18 to 20 hrs by two-fold microbroth dilution method.
A further experiment deals with Escherichia coli. Kind of experiment: Antibacterial activity against Escherichia coli ATCC 25922 after 18 to 20 hrs by two-fold microbroth dilution method.
The subject of the next experiment is Klebsiella pneumoniae. Kind of experiment: Antibacterial activity against Klebsiella pneumoniae ATCC 4352 after 18 to 20 hrs by two-fold microbroth dilution method.
Another experiment relates to Pseudomonas aeruginosa. The experiment is described as follows: Antibacterial activity against Pseudomonas aeruginosa […] after 18 to 20 hrs by two-fold microbroth dilution method.
For experiment [3], the system named is Staphylococcus aureus. The experiment is described as follows: Antibacterial activity against methicillin-resistant Staphylococcus aureus 198-1 after 18 to 20 hrs by two-fold microbroth dilution method.
Experiment [4] has as its system Staphylococcus aureus. Kind of experiment: Antibacterial activity against methicillin-resistant Staphylococcus aureus 198-2 after 18 to 20 hrs by two-fold microbroth dilution method.
In experiment [5] the test system is Staphylococcus aureus. The experiment is described as follows: Antibacterial activity against methicillin-resistant Staphylococcus aureus 198-3 after 18 to 20 hrs by two-fold microbroth dilution method.
A further experiment deals with Aspergillus niger. The experiment is described as follows: Antifungal activity against Aspergillus niger 439 after 72 hrs by agar dilution method. The settings on record: Aspergillus niger, 439, 72 h.
Another experiment deals with Candida albicans. Kind of experiment: Antifungal activity against Candida albicans ATCC 7754 after 72 hrs by agar dilution method. The note with it: ATCC 7754, 72 h.
Experiment [6] is described as follows: Antifungal activity against Fusarium oxysporum M42 after 72 hrs by agar dilution method.
A short description of experiment [7]: Antifungal activity against Saccharomyces cerevisiae SH20 after 72 hrs by agar dilution method.
For experiment [8], the system named is Rattus norvegicus. The experiment is described as follows: Antioxidant activity in CCL4-intoxicated Wistar albino rat assessed as liver cytosolic superoxide dismutase activity per mg protein at 100 mg/kg, ip administered for 7 consecutive days after DL-alpha-tocopherol acetate treatment followed by CCL4 dosing measured after 24 hrs by xanthine based assay (reference value: 5.27 +/- 0.22 U).

Experiment [9] deals with Rattus norvegicus. The experiment is described as follows: Antioxidant activity in CCL4-intoxicated Wistar albino rat assessed as liver cytosolic glutathione peroxidase activity per mg protein at 100 mg/kg, ip administered for 7 consecutive days after DL-alpha-tocopherol acetate treatment followed by CCL4 dosing measured after 24 hrs by H2O2 based spectrophotometric analysis (reference value: 0.28 +/- 0.01 U).

Experiment [10] deals with Rattus norvegicus. The experiment is described as follows: Antioxidant activity in CCL4-intoxicated Wistar albino rat assessed as liver cytosolic catalase activity per mg protein at 100 mg/kg, ip administered for 7 consecutive days after DL-alpha-tocopherol acetate treatment followed by CCL4 dosing measured after 24 hrs by H2O2 based assay (reference value: 220.15 +/- 11.43 U).

In brackets after ≈: the same amount, converted by molar mass.

Take `CC(=O)OC[C@H]1O[C@@H](NC(=S)N/N=C2/C(=O)Nc3ccc(F)cc32)[C@H](OC(C)=O)[C@@H](OC(C)=O)[C@@H]1OC(C)=O`: the MIC with Bacillus subtilis amounted to 3.12 µM (≈ 1.77 µg/mL); against Staphylococcus aureus [1], 3.12 µM (≈ 1.77 µg/mL); in [2], 3.12 µM (≈ 1.77 µg/mL); against Klebsiella aerogenes it was 50 µM (≈ 28.4 µg/mL); with Escherichia coli, 50 µM (≈ 28.4 µg/mL); in the experiment with Klebsiella pneumoniae, 50 µM (≈ 28.4 µg/mL). The MIC in the experiment on Pseudomonas aeruginosa amounted to 50 µM (≈ 28.4 µg/mL); in the experiment with Staphylococcus aureus [3], 1.56 µM (≈ 0.887 µg/mL); in the experiment on Staphylococcus aureus [4] it was 3.12 µM (≈ 1.77 µg/mL); against Staphylococcus aureus [5], 1.56 µM (≈ 0.887 µg/mL); with Aspergillus niger, 12.5 µM (≈ 7.11 µg/mL); against Candida albicans, 6.25 µM (≈ 3.55 µg/mL). Further, the MIC worked out at 12.5 µM (≈ 7.11 µg/mL) in experiment [6] and 6.25 µM (≈ 3.55 µg/mL) in experiment [7]. Further, the Activity with Rattus norvegicus [8] amounted to 9.84 U; in the experiment on Rattus norvegicus [9] it was 0.39 U; with Rattus norvegicus [10], 379.56 U.

On to `CC(=O)OC[C@H]1O[C@@H](NC(=S)N/N=C2/C(=O)N(C)c3ccccc32)[C@H](OC(C)=O)[C@@H](OC(C)=O)[C@@H]1OC(C)=O`, for which the MIC against Bacillus subtilis worked out at 100 µM (≈ 56.5 µg/mL); against Staphylococcus aureus [1], 100 µM (≈ 56.5 µg/mL); in [2], 100 µM (≈ 56.5 µg/mL); with Klebsiella aerogenes it was 12.5 µM (≈ 7.06 µg/mL); in the experiment with Escherichia coli, 12.5 µM (≈ 7.06 µg/mL); in the experiment with Klebsiella pneumoniae, 12.5 µM (≈ 7.06 µg/mL). The minimum inhibitory concentration (MIC) in the experiment with Pseudomonas aeruginosa came to 25 µM (≈ 14.1 µg/mL); in the experiment on Staphylococcus aureus [3] it was 100 µM (≈ 56.5 µg/mL); against Staphylococcus aureus [4], 100 µM (≈ 56.5 µg/mL); against Staphylococcus aureus [5] it was 100 µM (≈ 56.5 µg/mL); against Aspergillus niger, 25 µM (≈ 14.1 µg/mL); with Candida albicans it was 100 µM (≈ 56.5 µg/mL). For the same molecule, the results for the MIC in experiment [6] and in [7] were 200 µM (≈ 113 µg/mL) and 100 µM (≈ 56.5 µg/mL), respectively. Besides, the Activity in the experiment on Rattus norvegicus [8] is recorded as 9.52 U; in the experiment with Rattus norvegicus [9], 0.67 U; in the experiment on Rattus norvegicus [10], 350 U.

Take `CC(=O)OC[C@H]1O[C@@H](NC(=S)N/N=C2/C(=O)Nc3ccc(C(C)C)cc32)[C@H](OC(C)=O)[C@@H](OC(C)=O)[C@@H]1OC(C)=O`: the MIC with Bacillus subtilis amounted to 25 µM (≈ 14.8 µg/mL); in the experiment on Staphylococcus aureus [1] it was 12.5 µM (≈ 7.41 µg/mL); in [2] it was 12.5 µM (≈ 7.41 µg/mL); in the experiment on Klebsiella aerogenes, 50 µM (≈ 29.6 µg/mL); in the experiment with Escherichia coli it was 50 µM (≈ 29.6 µg/mL); against Klebsiella pneumoniae, 25 µM (≈ 14.8 µg/mL). Also, the minimal inhibitory concentration (MIC) against Pseudomonas aeruginosa came out at 25 µM (≈ 14.8 µg/mL); in the experiment on Staphylococcus aureus [3], 12.5 µM (≈ 7.41 µg/mL); against Staphylococcus aureus [4], 12.5 µM (≈ 7.41 µg/mL); in the experiment with Staphylococcus aureus [5], 12.5 µM (≈ 7.41 µg/mL); with Aspergillus niger, 100 µM (≈ 59.3 µg/mL); with Candida albicans it was 100 µM (≈ 59.3 µg/mL). The MIC in experiment [6] worked out at 25 µM (≈ 14.8 µg/mL); in experiment [7], 50 µM (≈ 29.6 µg/mL). The Activity with Rattus norvegicus [8] was 5.82 U; in the experiment with Rattus norvegicus [9] it was 1.75 U; with Rattus norvegicus [10] it was 260.61 U.

In the case of `O=C(O)c1cn(C2CC2)c2cc(N3CCNCC3)c(F)cc2c1=O` [CIPROFLOXACIN], the minimal inhibitory concentration (MIC) in the experiment on Bacillus subtilis worked out at 3.12 µM (≈ 1.03 µg/mL); in the experiment on Staphylococcus aureus [1] it was 3.12 µM (≈ 1.03 µg/mL); in experiment [2], 3.12 µM (≈ 1.03 µg/mL); in the experiment on Klebsiella aerogenes, 1.56 µM (≈ 0.517 µg/mL); against Escherichia coli it was 1.56 µM (≈ 0.517 µg/mL); in the experiment with Klebsiella pneumoniae, 1.56 µM (≈ 0.517 µg/mL). The same molecule yielded a minimum inhibitory concentration (MIC) with Pseudomonas aeruginosa of 1.56 µM (≈ 0.517 µg/mL).

Regarding `CN[C@H](CC(C)C)C(=O)N[C@H]1C(=O)N[C@@H](CC(N)=O)C(=O)N[C@H]2C(=O)N[C@H]3C(=O)N[C@H](C(=O)N[C@H](C(=O)O)c4cc(O)cc(O)c4-c4cc3ccc4O)[C@H](O)c3ccc(c(Cl)c3)Oc3cc2cc(c3O[C@@H]2O[C@H](CO)[C@@H](O)[C@H](O)[C@H]2O[C@H]2C[C@](C)(N)[C@H](O)[C@H](C)O2)Oc2ccc(cc2Cl)[C@H]1O` [VANCOMYCIN], the MIC with Bacillus subtilis was found to be 0.83 µM (≈ 1.2 µg/mL); in the experiment on Staphylococcus aureus [1], 1.21 µM (≈ 1.75 µg/mL); in experiment [2], 2.1 µM (≈ 3.04 µg/mL); with Staphylococcus aureus [3], 1.65 µM (≈ 2.39 µg/mL); against Staphylococcus aureus [4], 1.65 µM (≈ 2.39 µg/mL); in the experiment with Staphylococcus aureus [5], 1.65 µM (≈ 2.39 µg/mL).

Turning to `Clc1ccc(COC(Cn2ccnc2)c2ccc(Cl)cc2Cl)c(Cl)c1` (centres undefined) [MICONAZOLE], the MIC against Aspergillus niger was found to be 1.56 µM (≈ 0.649 µg/mL); against Candida albicans, 3.12 µM (≈ 1.3 µg/mL); in experiment [6], 3.12 µM (≈ 1.3 µg/mL); in [7], 3.12 µM (≈ 1.3 µg/mL).

For the molecule `COc1cccc(OC)c1C(=O)N[C@@H]1C(=O)N2[C@@H]1SC(C)(C)[C@@H]2C(=O)O` [METHICILLIN], the MIC in the experiment with Staphylococcus aureus [3], in the experiment on Staphylococcus aureus [4] and against Staphylococcus aureus [5] was over 200 µM in each case.

`Oc1ccc(/C=C/c2cc(O)cc(O)c2)cc1` [RESVERATROL]: the Activity with Rattus norvegicus [8] is reported as 7.31 U; with Rattus norvegicus [9] it was 0.33 U; in the experiment on Rattus norvegicus [10], 282.12 U.
